Results reported in patent publication US20240423941A1, “MEDIUM CHAIN DICARBOXYLIC ACIDS FOR THE TREATMENT AND PREVENTION OF DISEASES AND CONDITIONS” (University of Pittsburgh - Of the Commonwealth System of …, priority 2021, published 2024).
“Also recorded” adds a separate entry of the source.

Key:
[1] = tested on: lysine glutarylation (Glu-Lys); assay: Western blotting of lysine glutarylation in mice fed DC11; assay type: in vivo; conditions: 10% w/w for 7 days
[2] = tested on: long-chain acyl-CoA dehydrogenase (LCAD) knockout mice; assay: LCAD knockout mice, model of mitochondrial long-chain fatty acid oxidation disorders; assay type: in vivo
Source text: FIG. 11A-11E. DC12 and DC10 improve functioning in long-chain acyl-CoA dehydrogenase (LCAD) knockout mice, a mouse model of mitochondrial long-chain fatty acid oxidation disorders.

[3] = tested on: lysine succinylation (Suc-Lys) PTMs; assay: Western blotting of lysine succinylation in tissues of mice fed dicarboxylic acids; assay type: in vivo, wildtype C57Bl/6 mice; conditions: for lysine succinylation (Suc-Lys) PTMs in kidney / lysine succinylation (Suc-Lys) PTMs in liver: fed 10% w/w for 7 days
Source text: FIGS. 1A-1C. Feeding mice DCAs causes a dramatic shift in the post-translational modification (PTM) landscape. […] ND=normal diet. FIG. 1B) Mice were fed 10% DC12 for 0 to 7 days; some mice underwent a 7-day “washout” after 7 days on DC12.
FIG. 6. DC8 causes robust kidney specific succinylation. DC8, DC10 and DC12 were fed to wild-type mice at 10% w/w for 7 days.
(§1) We hypothesized that peroxisomes can chain-shorten DC12 as far as DC4-CoA, also known as succinyl-CoA. Such a mechanism would be predicted to 1) result in protein succinylation in the peroxisome, due to the known high chemical reactivity between lysine residues and succinyl-CoA; and 2) “feed” the mitochondrial TCA cycle with the products of DC12 chain-shortening, namely 2-carbon units (acetate) and succinate. We fed wildtype C57Bl/6 mice DC12 mixed into the diet and measured protein succinylation as a proxy for succinyl-CoA formation. […] The succinylation is seen to arise within 1 day and becomes maximal at 7 days (FIG. 1B). The effect is reversible when the diet is removed. DC12 degradation also produces acetyl-CoA. […] Like succinyl-CoA, glutaryl-CoA (DC5-CoA) is also highly reactive.
DC8 induces high-level, kidney-specific protein succinylation. […] Potential side effects caused by liver metabolization can be avoided, and the liver is not reducing the available agent.

[4] = tested on: lysine succinylation PTMs in kidney; assay: Quantitative mass spectrometry of contralateral and injured kidneys (AKI ± DC12); assay type: in vivo, mice
Source text: FIGS. 4A-4C. Effects of injury and DC12 on protein succinylation PTMs. N=4 mice were subjected to AKI±7 days of 10% DC12. Contralateral (non-injured kidneys) served as control. Quantitative mass spectrometry was used to profile lysine succinylation PTMs at the protein and site-level. […] FIG. 4C) Succinylation of individual lysine-containing peptides from four key peroxisomal proteins, normalized to control diet non-injured levels.
Portions of contralateral control kidney and injured kidney were used for quantitative mass spectrometry, to measure both total protein abundance and site-level changes in lysine succinylation.

cisplatin kidney injury = assay: Nephrotoxic (cisplatin) model of AKI; assay type: in vivo, male 129 WT mice
Protocol: FIGS. 5A-5B. DC12 treatment mitigates cisplatin kidney injury. Normal diet or DC12-fed (7 days pre-treatment+3 days post-treatment) male 129 WT mice were injected i.p. with 18 mg/kg cisplatin and sacrificed at day 3. (FIG. 5A) Reduction of serum bicarbonate by cisplatin-AKI was mitigated in DC12 treated mice. (FIG. 5B) Renal tubular injury by cisplatin is mitigated in DC12 treated mice. Magnified images for dotted boxed areas are shown. Tubular dilation, debris, or proteinaceous casts are indicated(*) n=6-7, mean±SEM, t-test, *p<0.05, Scale bars: 50 um
We also conducted a nephrotoxic model of AKI (cisplatin).
(§2) The effect of DC8 in ischemic AKI was also tested.

[5] = Body weight, food intake, grip strength and body composition (EchoMRI) in DC12-fed mice; assay type: in vivo
Protocol: FIGS. 8A-8G. […] FIG. 8A, 8B) Mice were fed DC12 for 5 weeks. Body weight and food weights were measured 3 times per week. […] Forelimb peak force was measured with a grip strength meter and normalized to body weight.

ischemic AKI = assay: Unilateral ischemic kidney injury (ischemic AKI); assay type: in vivo, male mice; conditions: for BUN / kidney damage by H & E staining (dilated tubules, proteinaceous casts) / serum creatinine: diet-fed versus normal diet; for expression of the injury marker NGAL in proximal tubules: immunostaining
Source text: FIG. 3. DC12 treatment mitigates ischemic kidney injury. Normal diet or DC12-fed male mice were subjected to ischemic AKI. […] Tubular dilation (arrows), debris, or proteinaceous casts are indicated (*). […] E,F) DC12-fed mice had lower serum creatinine and BUN, which are markers of kidney dysfunction. *p<0.05.
FIGS. 7A-7F. […] Normal diet or DC8-fed male mice were subjected to ischemic AKI. […] Tubular dilation (arrows), debris, or proteinaceous casts are indicated (*). […] FIGS. 7E,7F) DC8-fed mice had lower serum creatinine and BUN, which are markers of kidney dysfunction. ****p<0.0001.
DC12 is renoprotective. […] To test this, mice that had been fed ±10% DC12 for 7 days were subjected to unilateral ischemic kidney injury. In this model, the uninjured contralateral kidney is removed on Day 6 post-injury and used as control tissue, and the injured kidneys are collected one day later for analysis. The diet was continued during the 6-day recovery period post-injury, as well as after removing the contralateral kidney.
as §2

[6] = tested on: lysine succinylation in liver peroxisomes; assay: Lysine succinylation in liver peroxisomes and homogenates of WT versus Sirt5KO mice fed DC12; assay type: in vivo
Source text: FIGS. 2A-2C. […] FIG. 2A) Livers from N=3 mice fed DC12 for 7 days, separated by Histodenz gradient centrifugation to yield pure peroxisomes and blotted with anti-succinyllysine (SucLys). ND lanes=one control mouse of each genotype fed normal diet. Peroxisome fraction is positive for peroxisome marker PMP70 but negative for mitochondrial Tim23 except for WT sample #2 which had minor mitochondrial contamination. FIG. 2B) Densitometry from panel (FIG. 2A) showing total SucLys signal normalized to PMP70. FIG. 2C) Liver homogenates from normal diet (ND) and Sirt5KO mice (N=4) were subjected to quantitative site-level mass spectrometry for succinylated peptides. The Y-axis is Log 2 fold-change for each peptide relative to wild-type (WT) on ND. Each dot is an individual peptide.
An important question was whether Sirt5, a deacylase that can reverse succinylation and glutarylation, would offset and reverse the effects of feeding DCAs.

[7] = Indirect calorimetry (CLAMS) in DC12-fed mice; assay type: in vivo
Source text: FIGS. 9A-9D. DC12 increases whole-body energy expenditure and respiratory exchange ratio. Indirect calorimetry indicated increased whole-body respiration as measured in the CLAMS apparatus over 72 hrs, for both oxygen consumed (FIG. 9A) and carbon dioxide produced (FIG. 9B). […] The calculated energy expenditure in the DC12 group was higher (FIG. 9D).

protein acetylation = assay: Protein acetylation with pan anti-acetyllysine antibody in DC12-fed mice; assay type: in vivo
Source text: as §1

[8] = Treadmill run to exhaustion, blood lactate; assay type: in vivo, wildtype mice; conditions: DC12 diet for 7 days
Protocol: (§3) FIGS. 10A-10D. DC12 protects against lactic acidosis. Wildtype mice were maintained on DC12 diet for 7 days, then run on a treadmill to exhaustion. […] Then, mice fed DC12 were tested for protection against metformin overdose, which is clinically known to induce a lethal lactic acidosis. After a single 400 mg/kg dose of metformin, 9/11 mice on control diet died, while 0/12 mice on DC12 diet died (FIG. 10B).

metformin overdose = assay: Metformin overdose (lactic acidosis); assay type: in vivo, mice
Protocol: as §3

[9] = tested on: unilateral ureteral obstruction (UUO); assay: Unilateral ureteral obstruction (UUO) model of interstitial fibrosis; assay type: in vivo; conditions: DC8 fed versus control fed diet
Source text: FIG. 14. DC8 treatment was also protective against a chronic kidney disease model of interstitial fibrosis. As was evidenced in the control fed diet 14A and A′ when the kidney was subjected to unilateral ureteral obstruction (UUO) that there was a significant amount of trichrome positive fibrosis in the interstitium (blue).

## O=C(O)CCCCCCCCCC(=O)O [DC11, undecanedioic acid]
[1]
  lysine glutarylation (Glu-Lys) in liver and kidney: massive increase; also recorded: high-level protein glutarylation

## O=C(O)CCCCCCCCC(=O)O [DC10, decanedioic acid]
[2]; single dose
  blood lactate after acute exercise stress test on a treadmill: significantly lowered
[3]; western blotting
  lysine succinylation (Suc-Lys) PTMs in kidney: large increase; also recorded: stronger protein succinylation
  lysine succinylation (Suc-Lys) PTMs in liver: moderate upregulation

## O=C(O)CCCCCCCCCCC(=O)O [DC12, dodecanedioic acid]
[2]; two weeks on 10% DC12 diet
  fasting glucose: improved
  forelimb grip strength: improved
  spontaneous locomotion: improved
  time spent resting: less
[4]; 7 days of 10% DC12, quantitative mass spectrometry
  lysine succinylation in kidney: massively increased; also recorded: massive effects
[4]; compared to baseline (contralateral)
  succinylation level of kidney peroxisomal proteins: greatly increased
[4]; total protein abundance, quantitative mass spectrometry
  protein expression in kidney: very minimal if any effect
Cisplatin kidney injury; 18 mg/kg cisplatin i.p., day 3
  reduction of serum bicarbonate by cisplatin-AKI: mitigated; also recorded: improved functionality
  renal tubular injury by cisplatin (histology): mitigated; also recorded: less structural damage
Cisplatin kidney injury; mouse, in vivo
  protection against injury in cisplatin model: protected against injury
[3]; 7-day washout after 7 days on DC12
  reversibility of succinylation: reversible
[3]; 10% DC12 for 0 to 7 days
  time at which succinylation becomes maximal: 7 days
  time for succinylation to arise: ≤ 1 days
[3]; DC12 mixed into the diet, western blotting
  succinylation in muscle, heart, and brain: no change
[3]; western blotting
  lysine succinylation (Suc-Lys) PTMs in kidney: massive increase; also recorded: moderate increase; also recorded: massive upregulation
  lysine succinylation (Suc-Lys) PTMs in liver: massive increase; also recorded: large increase; also recorded: massive upregulation; also recorded: strongest protein succinylation
[5]; 5 weeks or 9 weeks, EchoMRI
  fat mass: reduces fat mass
  lean mass: not altering lean mass
[5]; at sacrifice
  liver fat (triacylglycerol, TAG): also reduced
  mass of the intra-abdominal fat pad (epididymal): significantly reduced
[5]; fed DC12 for 5 weeks
  body weight: reduced body weight
  food intake: without changing food intake
[5]; grip strength meter
  muscle strength (forelimb peak force normalized to body weight): does not reduce muscle strength
Ischemic AKI
  BUN: lower; also recorded: significantly reduced
  kidney damage by H & E staining (dilated tubules, proteinaceous casts): reduced kidney damage; also recorded: reduced the number of dilated tubules and proteinaceous casts
  serum creatinine: lower; also recorded: significantly reduced
  expression of the injury marker NGAL in proximal tubules: markedly reduced; also recorded: less induction
[6]; 10% DC12 for 7 days, anti-succinyllysine blot
  lysine succinylation in liver peroxisomes, WT versus Sirt5-/-: equal lysine succinylation
[6]; liver, quantitative mass spectrometry
  succinylated peptides, fold-change relative to WT on normal diet: very high fold-changes in succinylation in both genotypes; also recorded: increases lysine succinylation dramatically
[7]; CLAMS over 72 hrs
  whole-body respiration, carbon dioxide produced: increased
  whole-body respiration, oxygen consumed: increased
[7]; dark period
  respiratory exchange ratio (RER): shift toward a higher RER
[7]; mouse, in vivo
  calculated energy expenditure: higher
Protein acetylation
  protein acetylation: no changes were observed
[8]
  blood lactate at exhaustion: significantly reduced
Metformin overdose; 2 hr post-metformin injection
  blood glucose levels relative to control: twice as high as control
  lactate levels, lower than control: 50%
Metformin overdose; single 400 mg/kg dose of metformin
  mice that died: 0/12

## O=C(O)CCCCCCC(=O)O [DC8, octanedioic acid]
[3]; western blotting
  lysine succinylation (Suc-Lys) PTMs in kidney: dramatic increase; also recorded: stronger protein succinylation
  lysine succinylation (Suc-Lys) PTMs in liver: not the liver
[9]
  interstitial fibrosis (trichrome): dramatically decreased
Ischemic AKI; after ischemic injury
  kidney function: dramatically improved
Ischemic AKI
  BUN: lower
  kidney damage by H & E staining (dilated tubules, proteinaceous casts): reduced kidney damage; also recorded: marked reduction in kidney damage
  serum creatinine: lower
  expression of the injury marker NGAL in proximal tubules: markedly reduced
